Data taken from ChEMBL document CHEMBL1158402, “Homology modeling of MCH1 receptor and validation by docking/scoring and protein-aligned CoMFA” (Eur J Med Chem, 2009).
pKi: −log10 of the molar value.

Target: Melanin-concentrating hormone receptor 1 (Homo sapiens, UniProt Q99705)
Assay: Binding affinity to MCH1 receptor

Chain of Melanin-concentrating hormone receptor 1 (Q99705 whole entry): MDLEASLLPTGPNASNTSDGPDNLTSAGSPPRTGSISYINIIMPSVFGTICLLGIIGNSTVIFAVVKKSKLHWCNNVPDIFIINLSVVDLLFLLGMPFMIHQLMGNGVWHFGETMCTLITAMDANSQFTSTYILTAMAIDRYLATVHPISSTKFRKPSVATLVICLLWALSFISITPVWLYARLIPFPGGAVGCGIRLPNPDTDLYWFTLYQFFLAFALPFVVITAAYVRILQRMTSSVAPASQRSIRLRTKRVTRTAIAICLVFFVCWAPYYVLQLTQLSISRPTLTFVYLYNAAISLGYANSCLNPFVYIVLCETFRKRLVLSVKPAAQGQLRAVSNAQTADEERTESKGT

Row | pKi | SMILES
1 | 5.85 | Cc1ccc(CN2CCC(=Cc3ccc(C(=O)N[C@H](C)c4ccc(Br)cc4)cc3)CC2)c2ccccc12
2 | 5.46 | C[C@@H](NC(=O)c1ccc(CC2CCN(Cc3ccc4c(c3)OCO4)CC2)cc1)c1ccccc1
3 | 6.58 | COc1cccc([C@@H](C)NC(=O)c2ccc(CC3CCN(Cc4ccc5c(c4)OCO5)CC3)cc2)c1
4 | 6.97 | C[C@@H](NC(=O)c1ccc(CC2CCN(Cc3ccc4c(c3)OCO4)CC2)cc1)c1ccc(Cl)cc1
5 | 6.10 | CC[C@@H](NC(=O)c1ccc(CC2CCN(Cc3ccc4c(c3)OC(F)(F)O4)CC2)cc1)c1ccc(I)cc1
6 | 7.52 | CC[C@@H](NC(=O)c1ccc(CC2CCN(Cc3ccc4cncnc4c3)CC2)cc1)c1ccc(I)cc1
7 | 8.30 | CC[C@@H](NC(=O)c1ccc(CC2CCN(Cc3ccc4cccnc4c3)CC2)cc1)c1ccc(I)cc1
8 | 4.81 | C[C@@H](NC(=O)c1ccc(C=C2CCN(Cc3ccco3)CC2)cc1)c1ccc(Br)cc1
9 | 5.33 | O=C(N[C@@H]1CCc2ccccc21)c1ccc(CC2CCN(Cc3ccc4c(c3)OCO4)CC2)cc1
10 | 5.69 | COc1ccccc1[C@@H](C)NC(=O)c1ccc(CC2CCN(Cc3ccc4c(c3)OCO4)CC2)cc1
11 | 7.29 | C[C@@H](NC(=O)c1ccc(CC2CCN(Cc3ccc4c(c3)OCO4)CC2)cc1)c1ccc(I)cc1
12 | 5.97 | Cc1ccc([C@@H](C)NC(=O)c2ccc(CC3CCN(Cc4ccc5c(c4)OCO5)CC3)cc2)cc1
13 | 6.51 | CC[C@@H](NC(=O)c1ccc(CC2CCN(Cc3ccc4ccccc4n3)CC2)cc1)c1ccc(I)cc1
14 | 5.59 | C[C@@H](NC(=O)c1ccc(C=C2CCN(Cc3ccccc3)CC2)cc1)c1ccc(Br)cc1
15 | 4.93 | C[C@@H](NC(=O)c1ccc(C=C2CCN(CC3CCCCC3)CC2)cc1)c1ccc(Br)cc1
16 | 5.38 | CC(NC(=O)c1ccc(CC2CCN(Cc3ccc4c(c3)OCO4)CC2)cc1)c1ccccc1 (stereo not drawn)
17 | 5.03 | Cc1ccccc1CNC(=O)c1ccc(CC2CCN(Cc3ccc4c(c3)OCO4)CC2)cc1
18 | 6.72 | CCC[C@@H](NC(=O)c1ccc(CC2CCN(Cc3ccc4c(c3)OCO4)CC2)cc1)c1ccc(I)cc1
19 | 7.40 | CC[C@@H](NC(=O)c1ccc(CC2CCN(Cc3ccc4nccnc4c3)CC2)cc1)c1ccc(I)cc1
20 | 5.71 | C[C@@H](NC(=O)c1ccc(CN2CCN(Cc3ccc4c(c3)OCO4)CC2)cc1)c1ccc(Br)cc1
21 | 5.34 | CC1CN(Cc2ccc3c(c2)OCO3)CCN1Cc1ccc(C(=O)N[C@@H](C)c2ccc(Br)cc2)cc1 (stereo partly drawn)
22 | 5.45 | C[C@@H](NC(=O)c1ccc(CC2CCN(Cc3ccc4c(c3)OCO4)CC2)cc1)C1CCCCC1
23 | 5.29 | C[C@@H](NC(=O)c1ccc(C=C2CCN(Cc3ccc(-c4ccccc4)cc3)CC2)cc1)c1ccc(Br)cc1
24 | 5.63 | CC(c1ccc(C(=O)N[C@@H](C)c2ccc(Br)cc2)cc1)N1CCN(Cc2ccc3c(c2)OCO3)CC1 (stereo partly drawn)
25 | 6.83 | COc1ccc(CN2CCC(=Cc3ccc(C(=O)N[C@H](C)c4ccc(Br)cc4)cc3)CC2)cc1
26 | 6.88 | O=C(Cc1ccc2c(c1)CCO2)c1ccc(CC2CCN(Cc3ccc4c(c3)OCO4)CC2)cc1
27 | 7.70 | CC[C@@H](NC(=O)c1ccc(CC2CCN(Cc3ccc4c(c3)OCO4)CC2)cc1)c1ccc(I)cc1
28 | 5.25 | O=C(NCc1ccccc1)c1ccc(CC2CCN(Cc3ccc4c(c3)OCO4)CC2)cc1
